From ChEMBL document CHEMBL3259785, “Recent advances in the discovery of small molecules targeting exchange proteins directly activated by cAMP (EPAC)” (J Med Chem, 2014) come the findings set out here.

Assay [1] concerns the target T1, Rap guanine nucleotide exchange factor 4 (Homo sapiens, UniProt Q8WZA2). Description: Displacement of 8-NBD-cAMP from EPAC2 (unknown origin) by fluorescence plate reader analysis.
Assay [2] has as its target T1, Rap guanine nucleotide exchange factor 4. Description: Inhibition of EPAC2 (unknown origin).
Assay [3] has as its target T2, Rap guanine nucleotide exchange factor 3 (Homo sapiens, UniProt O95398).
T2 sequence (O95398 whole entry): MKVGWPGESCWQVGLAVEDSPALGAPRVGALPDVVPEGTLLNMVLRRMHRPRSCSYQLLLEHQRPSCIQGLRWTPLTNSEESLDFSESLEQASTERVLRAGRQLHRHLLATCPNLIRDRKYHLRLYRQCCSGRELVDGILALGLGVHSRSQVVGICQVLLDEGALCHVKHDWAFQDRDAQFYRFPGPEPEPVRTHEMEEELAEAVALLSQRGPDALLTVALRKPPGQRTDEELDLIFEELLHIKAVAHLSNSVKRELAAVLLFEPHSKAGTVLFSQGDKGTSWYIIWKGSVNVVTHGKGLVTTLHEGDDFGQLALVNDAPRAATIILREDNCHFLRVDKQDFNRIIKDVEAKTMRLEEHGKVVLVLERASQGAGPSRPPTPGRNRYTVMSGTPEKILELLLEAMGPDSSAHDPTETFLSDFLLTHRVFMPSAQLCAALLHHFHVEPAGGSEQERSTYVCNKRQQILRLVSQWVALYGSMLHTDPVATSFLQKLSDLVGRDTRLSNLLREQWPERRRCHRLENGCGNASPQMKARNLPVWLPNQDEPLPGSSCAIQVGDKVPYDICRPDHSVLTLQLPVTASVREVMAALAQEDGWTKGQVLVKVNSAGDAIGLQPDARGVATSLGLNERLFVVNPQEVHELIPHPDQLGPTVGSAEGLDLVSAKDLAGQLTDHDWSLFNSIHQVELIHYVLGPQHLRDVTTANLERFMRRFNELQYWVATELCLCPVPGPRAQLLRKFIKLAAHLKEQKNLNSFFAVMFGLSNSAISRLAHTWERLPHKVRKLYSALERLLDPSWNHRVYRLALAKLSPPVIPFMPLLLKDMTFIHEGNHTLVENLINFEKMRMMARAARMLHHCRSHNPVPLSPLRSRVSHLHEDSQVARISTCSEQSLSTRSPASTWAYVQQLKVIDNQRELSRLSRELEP
Description: Inhibition of EPAC1 (unknown origin) assessed as cAMP-mediated GEF activity.

Structures are written as SMILES.

T1 sequence (Q8WZA2 whole entry): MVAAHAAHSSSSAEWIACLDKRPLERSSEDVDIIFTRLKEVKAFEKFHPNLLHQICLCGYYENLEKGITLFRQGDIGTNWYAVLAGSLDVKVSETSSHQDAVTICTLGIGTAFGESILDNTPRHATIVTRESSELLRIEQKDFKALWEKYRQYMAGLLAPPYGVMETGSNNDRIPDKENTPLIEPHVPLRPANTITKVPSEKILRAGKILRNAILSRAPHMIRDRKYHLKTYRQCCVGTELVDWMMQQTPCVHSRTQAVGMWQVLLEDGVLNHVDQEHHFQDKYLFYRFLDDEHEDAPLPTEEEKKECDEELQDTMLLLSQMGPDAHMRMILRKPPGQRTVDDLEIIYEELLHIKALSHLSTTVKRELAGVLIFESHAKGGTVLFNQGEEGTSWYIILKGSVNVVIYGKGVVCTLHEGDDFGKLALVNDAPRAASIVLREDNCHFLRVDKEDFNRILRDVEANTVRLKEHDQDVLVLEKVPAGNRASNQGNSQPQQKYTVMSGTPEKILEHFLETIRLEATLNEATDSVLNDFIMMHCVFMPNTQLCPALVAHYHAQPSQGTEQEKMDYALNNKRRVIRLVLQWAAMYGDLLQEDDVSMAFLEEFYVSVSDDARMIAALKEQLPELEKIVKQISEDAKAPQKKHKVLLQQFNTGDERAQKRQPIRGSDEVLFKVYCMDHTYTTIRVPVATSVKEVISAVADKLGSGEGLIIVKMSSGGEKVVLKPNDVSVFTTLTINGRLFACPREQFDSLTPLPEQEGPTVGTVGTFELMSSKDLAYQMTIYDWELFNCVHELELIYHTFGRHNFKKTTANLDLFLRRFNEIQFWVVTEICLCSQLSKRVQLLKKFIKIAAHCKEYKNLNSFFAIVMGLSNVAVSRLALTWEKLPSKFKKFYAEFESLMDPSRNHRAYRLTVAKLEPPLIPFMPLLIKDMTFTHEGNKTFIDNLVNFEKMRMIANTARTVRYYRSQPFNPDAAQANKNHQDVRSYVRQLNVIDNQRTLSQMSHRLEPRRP

`O=S(=O)(O)c1ccc2c(/N=N/c3c(O)ccc4ccccc34)cccc2c1` returned an IC50 in assay [1] of 1.7 µM.
Same read-out and setting: the result for `N#Cc1c(NC(=O)C(F)(F)F)sc2c3c(=O)c4ccccc4c(=O)c=3oc3ccccc3c12` reads 7.9 µM.
The same measure, in the same setting: in the case of `O=C1C=CC2=C(Oc3c(ccc(O)c3O)/C2=C/C=C(O)O)C1=O` it was 3.8 µM.
Turning to `COCCC[n+]1c(C)csc1Nc1c(C)cc(C)cc1C`, in assay [2], the IC50 was 0.6 µM.
`CC(C)(C)c1cc(C(=O)/C(C#N)=N/Nc2cccc(Cl)c2)no1`: the IC50 in assay [1] stood at 7 µM; in assay [3], 3.2 µM.

For orientation: IC50 means the concentration that inhibits the measured activity by half.
